Molecules are shown by their SMILES.

This assay has as its system myeloperoxidase (MPO). Briefly: Myeloperoxidase (MPO) activity in wound tissue of diabetic mice (db/db). It is filed as in vivo. The settings on record: db/db mouse. The protocol: MPO determination is based on the oxidation of H2O2 by a peroxidase in the presence of TMB (3,3′5,5′-Tetramethylbenzidin). The results were quantified with a human MPO standard curve prepared in homogenate buffer, which also serves as a blank. Samples were diluted fifteen fold in homogenate buffer. Of each sample, standard and blank 20 μL were dispensed in a clear flat bottom MWP at RT. Following that 100 μL of fresh 0.2 mM TMB in AC-POX buffer are added and the reaction was started by adding 12.5 μL of 1 mM H2O2 in AC-POX buffer. After 5-10 min 22.5 μL of 1 N H2SO4 was added to stop the reaction and plates were vortexed briefly to evenly distribute the newly developed yellow color. […] Absorption was measured at k=450 nm and the amount of MPO in samples was calculated from standard curve in SoftmaxPro 6.4 after subtracting the blank.
To assess neutrophil activity in wound tissue samples, myeloperoxidase activity was measured.

With `CC1=C(C#N)[C@@H](c2ccc(C#N)cc2S(C)(=O)=O)N(C)C(=O)N1c1cccc(C(F)(F)F)c1` [Example 5, (4 S)-4-[4-Cyano-2-(methylsulfonyl)phenyl]-3,6-dimethyl-2-oxo-1-[3-(trifluoromethyl)phenyl]-1,2,3,4-tetrahydropyrimidine-5-carbonitrile], the “Neutrophil dependent inflammatory activity in wound tissue (MPO activity)” value reads like this: (0.03 mg/kg BW o.d.) 0.00361 Peroxidase Activity/μg Protein; (0.1 mg/kg BW o.d.) 0.00029 Peroxidase Activity/μg Protein; (0.3 mg/kg BW o.d.) 0.00043 Peroxidase Activity/μg Protein; (1.0 mg/kg BW o.d.) 0.00043 Peroxidase Activity/μg Protein; (3.0 mg/kg BW o.d.) 0.00027 Peroxidase Activity/μg Protein; (10.0 mg/kg BW o.d.) 0.00016 Peroxidase Activity/μg Protein. Besides, the “Inhibition of MPO activity in wound tissue (in words)” value (from 0.1 mg/kg) was “potently and effectively inhibited MPO activity in wound tissue”.
